Reference: ChEMBL document CHEMBL1201862, “PubChem BioAssay data set” (2004)
Calls of active or inactive are those of the source.

Legend:
cells [1] = format: functional, cell-based
cells [2] = format: functional, cell-based; remark: listed apart in the source
[3] = biological target: FAD-linked sulfhydryl oxidase ALR (Homo sapiens, UniProt P55789); test: inhibitors of human ALR sulfhydryl oxidase, dose response, biochemical, H2O2 detection, luminescence, cherry-pick (AID 493248)
Cytochrome P450 2C9 = Cytochrome P450 2C9 (Homo sapiens, UniProt P11712)
Cytochrome P450 2C19 = Cytochrome P450 2C19 (Homo sapiens, UniProt P33261); test: Cytochrome panel assay with activity outcomes. Panel member name: p450-cyp2c19 Compounds with AC50 equal or less than 10 uM are considered active; format: functional; conditions: read-out: AC50
Cytochrome P450 2D6 = Cytochrome P450 2D6 (Homo sapiens, UniProt P10635);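 note: CYP2D6 member of a cytochrome P450 panel assay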
Cytochrome P450 1A2 = biological target: T1, Cytochrome P450 1A2 (Homo sapiens, UniProt P05177);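 note: PubChem cytochrome P450 panel assay, CYP1A2 panel member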
T1 sequence (P05177 whole entry): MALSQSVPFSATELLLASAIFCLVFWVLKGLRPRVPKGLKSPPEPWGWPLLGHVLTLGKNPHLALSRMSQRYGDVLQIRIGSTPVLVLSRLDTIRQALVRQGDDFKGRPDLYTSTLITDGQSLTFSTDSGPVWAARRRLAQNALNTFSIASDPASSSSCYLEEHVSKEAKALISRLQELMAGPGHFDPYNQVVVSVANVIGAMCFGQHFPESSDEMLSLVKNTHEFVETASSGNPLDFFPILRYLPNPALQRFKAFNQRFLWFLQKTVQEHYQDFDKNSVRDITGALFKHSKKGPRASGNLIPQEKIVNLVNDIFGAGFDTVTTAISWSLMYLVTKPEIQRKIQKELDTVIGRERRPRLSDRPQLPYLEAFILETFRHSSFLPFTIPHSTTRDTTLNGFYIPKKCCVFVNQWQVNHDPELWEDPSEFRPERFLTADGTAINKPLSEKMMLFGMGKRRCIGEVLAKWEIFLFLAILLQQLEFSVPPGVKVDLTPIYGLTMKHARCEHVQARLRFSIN

[4] = biological target: T2, Corticotropin-releasing factor receptor 2/Corticotropin-releasing factor-binding protein (Homo sapiens, UniProt P24387+Q13324); test: Dose Response confirmation of uHTS hits for small molecule antagonists of the CRF-binding protein and CRF-R2 receptor complex.; format: functional; conditions: read-out: IC50_Mean
T2 sequence (Q13324 whole entry): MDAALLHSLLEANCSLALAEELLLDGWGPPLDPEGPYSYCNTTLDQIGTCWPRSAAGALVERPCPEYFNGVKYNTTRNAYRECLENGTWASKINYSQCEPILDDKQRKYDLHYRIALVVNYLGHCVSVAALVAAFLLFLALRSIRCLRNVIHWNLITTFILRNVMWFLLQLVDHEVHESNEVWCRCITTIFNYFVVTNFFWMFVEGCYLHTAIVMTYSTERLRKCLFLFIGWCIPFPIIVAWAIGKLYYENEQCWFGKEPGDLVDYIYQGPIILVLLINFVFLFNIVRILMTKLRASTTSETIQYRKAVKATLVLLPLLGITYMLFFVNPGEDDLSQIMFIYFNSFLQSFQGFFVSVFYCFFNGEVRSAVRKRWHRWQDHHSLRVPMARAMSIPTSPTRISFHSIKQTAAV
T2 sequence (P24387 whole entry): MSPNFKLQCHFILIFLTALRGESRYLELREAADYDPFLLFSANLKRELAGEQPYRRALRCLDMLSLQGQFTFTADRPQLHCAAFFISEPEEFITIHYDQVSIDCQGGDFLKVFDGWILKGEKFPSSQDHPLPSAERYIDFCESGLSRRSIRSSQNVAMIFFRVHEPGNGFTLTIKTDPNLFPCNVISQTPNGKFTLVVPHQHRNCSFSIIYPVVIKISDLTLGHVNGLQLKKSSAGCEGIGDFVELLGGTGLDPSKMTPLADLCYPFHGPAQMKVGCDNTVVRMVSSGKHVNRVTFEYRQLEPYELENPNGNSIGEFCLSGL

[5] = biological target: T2, Corticotropin-releasing factor receptor 2/Corticotropin-releasing factor-binding protein; test: activators of CRF receptor 2 with binding protein – uHTS hits, confirmation (AID 602473); format: functional; conditions: read-out: EC50_Mean
Large T antigen = Large T antigen (Simian virus 40, UniProt P03070); format: functional, Betapolyomavirus macacae;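 note: Confirmatory-stage PubChem screen for compounds that inhibit SV40 T antigen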
Sequence of Large T antigen (P03070 whole entry): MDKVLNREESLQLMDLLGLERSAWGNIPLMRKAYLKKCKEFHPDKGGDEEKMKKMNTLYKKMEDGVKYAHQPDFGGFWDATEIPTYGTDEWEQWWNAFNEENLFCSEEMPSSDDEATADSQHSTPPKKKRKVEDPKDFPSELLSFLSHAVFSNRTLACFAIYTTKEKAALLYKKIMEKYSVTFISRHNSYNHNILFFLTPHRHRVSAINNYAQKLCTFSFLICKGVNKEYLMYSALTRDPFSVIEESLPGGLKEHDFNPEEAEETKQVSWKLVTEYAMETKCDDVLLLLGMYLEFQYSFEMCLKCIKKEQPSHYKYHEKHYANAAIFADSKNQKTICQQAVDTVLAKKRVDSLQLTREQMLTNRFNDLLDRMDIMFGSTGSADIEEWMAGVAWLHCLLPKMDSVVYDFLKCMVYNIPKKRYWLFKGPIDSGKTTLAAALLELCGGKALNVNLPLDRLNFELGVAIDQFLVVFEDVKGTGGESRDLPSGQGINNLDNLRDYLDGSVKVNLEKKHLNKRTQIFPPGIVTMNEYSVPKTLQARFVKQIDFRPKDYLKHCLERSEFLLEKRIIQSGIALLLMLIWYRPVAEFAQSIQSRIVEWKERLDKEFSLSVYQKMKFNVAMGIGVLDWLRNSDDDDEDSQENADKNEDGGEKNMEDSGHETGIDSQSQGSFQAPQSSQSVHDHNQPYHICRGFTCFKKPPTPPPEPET

Sequence of FAD-linked sulfhydryl oxidase ALR (P55789 whole entry): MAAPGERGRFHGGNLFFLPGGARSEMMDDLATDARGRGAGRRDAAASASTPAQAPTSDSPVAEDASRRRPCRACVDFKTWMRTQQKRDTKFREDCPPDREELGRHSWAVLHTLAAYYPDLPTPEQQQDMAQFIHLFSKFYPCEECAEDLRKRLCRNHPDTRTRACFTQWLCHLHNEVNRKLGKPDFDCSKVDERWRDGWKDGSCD
Sequence of Cytochrome P450 2C9 (P11712 whole entry): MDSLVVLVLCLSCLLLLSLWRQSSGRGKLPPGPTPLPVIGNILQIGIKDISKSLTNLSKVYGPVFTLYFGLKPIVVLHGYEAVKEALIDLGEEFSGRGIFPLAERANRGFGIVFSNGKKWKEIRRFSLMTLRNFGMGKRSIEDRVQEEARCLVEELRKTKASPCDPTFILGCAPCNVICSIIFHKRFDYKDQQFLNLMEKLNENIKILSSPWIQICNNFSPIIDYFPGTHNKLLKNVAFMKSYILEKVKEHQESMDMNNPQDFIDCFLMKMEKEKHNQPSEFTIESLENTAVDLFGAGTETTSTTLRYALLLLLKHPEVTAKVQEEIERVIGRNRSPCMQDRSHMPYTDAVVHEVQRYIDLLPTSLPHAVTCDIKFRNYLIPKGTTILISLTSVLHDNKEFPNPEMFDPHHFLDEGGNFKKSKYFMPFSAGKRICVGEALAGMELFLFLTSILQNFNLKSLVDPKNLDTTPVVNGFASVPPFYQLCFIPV
Sequence of Cytochrome P450 2C19 (P33261 whole entry): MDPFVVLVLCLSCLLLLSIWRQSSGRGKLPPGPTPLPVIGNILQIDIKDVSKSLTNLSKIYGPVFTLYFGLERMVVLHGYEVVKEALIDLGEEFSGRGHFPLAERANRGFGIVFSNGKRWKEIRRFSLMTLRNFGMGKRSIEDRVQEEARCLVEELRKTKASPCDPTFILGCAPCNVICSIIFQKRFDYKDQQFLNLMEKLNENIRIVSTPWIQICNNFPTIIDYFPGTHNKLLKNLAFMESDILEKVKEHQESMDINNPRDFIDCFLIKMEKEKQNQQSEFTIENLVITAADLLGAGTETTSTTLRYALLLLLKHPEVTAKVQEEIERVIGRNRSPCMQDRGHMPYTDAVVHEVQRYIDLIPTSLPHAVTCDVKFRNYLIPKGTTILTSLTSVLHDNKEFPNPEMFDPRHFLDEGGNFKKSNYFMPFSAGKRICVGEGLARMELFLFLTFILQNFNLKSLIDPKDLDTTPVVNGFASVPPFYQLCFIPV
Sequence of Cytochrome P450 2D6 (P10635 whole entry): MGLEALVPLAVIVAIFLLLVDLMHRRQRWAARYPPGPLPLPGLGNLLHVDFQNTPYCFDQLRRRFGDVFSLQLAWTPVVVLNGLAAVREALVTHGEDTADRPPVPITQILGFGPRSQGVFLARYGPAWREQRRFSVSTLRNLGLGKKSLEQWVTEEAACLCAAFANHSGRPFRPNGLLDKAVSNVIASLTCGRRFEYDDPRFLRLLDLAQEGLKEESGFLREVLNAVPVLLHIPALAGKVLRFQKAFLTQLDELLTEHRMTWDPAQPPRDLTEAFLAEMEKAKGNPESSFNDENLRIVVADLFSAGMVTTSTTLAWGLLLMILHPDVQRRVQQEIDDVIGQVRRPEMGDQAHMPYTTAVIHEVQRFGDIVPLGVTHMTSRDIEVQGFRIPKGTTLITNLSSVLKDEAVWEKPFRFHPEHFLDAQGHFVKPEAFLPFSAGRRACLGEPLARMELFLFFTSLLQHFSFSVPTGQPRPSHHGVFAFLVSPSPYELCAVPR

COc1ccc(C2(C)NC(=O)NC2=O)cc1OC (stereo unspecified)
EC50 (cells [1]): > 350 µM (not active) | EC50 (cells [2]): 116 µM (active)

O=C(NCc1ccccc1)C(=O)c1cn(CC(=O)N2CCOCC2)c2ccccc12
EC50 (cells [1]): > 350 µM (not active) | EC50 (cells [2]): > 350 µM (not active)

O=C(O)C1CSC(c2coc3ccccc3c2=O)N1 (stereo unspecified)
AC50 [3]: 0.083 µM (active)

COc1ccc(OC)c2nc(O)c(CCNC(=O)COc3ccccc3)cc12
AC50 (Cytochrome P450 2C9): inconclusive

c1ccc(-n2cnc3cc(NCc4ccccn4)ccc32)cc1
AC50 [3]: 1.17 µM (active)

Cn1c(=O)c2cc(S(=O)(=O)NCCC(=O)N3CC=C(c4ccccc4)CC3)ccc2n(C)c1=O
AC50 (Cytochrome P450 2C19): 25.1 µM (inconclusive) | AC50 (Cytochrome P450 2D6): 17.8 µM (inconclusive) | AC50 (Cytochrome P450 1A2): 31.6 µM (inconclusive) | AC50 (Cytochrome P450 2C9): inconclusive

COc1cccc(OCc2cc(C(=O)N3CCN(c4ccccc4OC)CC3)no2)c1
EC50 (cells [1]): > 350 µM (not active) | EC50 (cells [2]): 66.7 µM (active)

COc1ccccc1OCC(=O)NNC(=O)c1cnccn1
IC50 [4]: > 47.1 µM (inactive) | EC50 [5]: > 53 µM (inactive) | AC50 (Cytochrome P450 1A2): 17.8 µM (inconclusive) | AC50 (Cytochrome P450 2C9): inconclusive

O=C(O)c1ccccc1C(=O)Nc1ccc(-c2csc(-c3ccccc3)n2)cc1
AC50 [3]: 0.218 µM (active)

COc1ccc(C(=O)Nc2ccc(Cl)cn2)cc1Cl
AC50 (Cytochrome P450 2C9): inconclusive

Cc1ccc(-c2nc(C#N)c(NCCN3CCCCC3)o2)cc1
AC50 [3]: 4.4 µM (active)

COc1cccc(C2=NOC(C(=O)Nc3ccc(OC)c(OC)c3)C2)c1 (stereo unspecified)
AC50 (Cytochrome P450 2C19): 25.1 µM (inconclusive) | AC50 (Cytochrome P450 2C9): inconclusive

COC(=O)[C@H](CCSC)NC(=O)C/C=C\[C@@H](C)CO
AC50 (Cytochrome P450 2C9): inconclusive

O=C(O)c1cscc1Cc1cccs1
AC50 (Cytochrome P450 2C9): inconclusive

Cc1ccc2cc3c(N)[nH]nc3nc2c1
IC50 (Large T antigen): 13.1 µM (active)

Cc1nnc(Nc2ccc(O)cc2)nc1O
IC50 (Large T antigen): 33 µM (active)

CCNc1ncc2ncc(=O)n(C3CC3)c2n1
AC50 (Cytochrome P450 2C9): inconclusive

C/C(=N/NS(=O)(=O)c1cccc([N+](=O)[O-])c1)c1c[nH]c2ccccc12
IC50 (Large T antigen): 17 µM (active)

C=CCNC(=O)c1onc(CSc2cc(C)ccc2C)c1C(=O)O
AC50 [3]: 4.81 µM (active)

CN1CCC2(CC1)N=C(c1ccc(F)cc1)C(=S)N2C(=O)c1ccc(C(C)(C)C)cc1
EC50 (cells [1]): > 350 µM (not active) | EC50 (cells [2]): 73.9 µM (active)

COc1ccc(Nc2nc(N/N=C/c3ccc(N(C)C)cc3)nc(C)c2[N+](=O)[O-])cc1
EC50 (cells [1]): > 350 µM (not active) | EC50 (cells [2]): > 350 µM (not active)

COC(=O)CNc1c(-c2ccccc2)nc2ccc(Br)cn12
AC50 [3]: 1.08 µM (active)

COc1ccc(/C=N/NC(=O)c2ccccc2O)cc1CSc1ccccn1
EC50 (cells [1]): > 350 µM (not active) | EC50 (cells [2]): > 350 µM (not active)
